Results on four molecules are retold here after patent US6440980B1, “Synergistic inhibition of viral replication by long-chain hydrocarbons and nucleoside analogs” (Avanir Pharmaceuticals, priority 1996, dated 2002).

The test system of data set [1] is Vero cells.
Data set [2] deals with Cytomegalovirus (CMV). Put plainly: CMV infectious center assay in MRC-5 cells. It is filed as cell-based, human cytomegalovirus (Towne strain). To be noted: for EC50: Human betaherpesvirus 5, MRC5, read-out: ACV Efficacy EC50 (μM), CMV; for EC90: Human betaherpesvirus 5, MRC5, read-out: ACV Efficacy EC90 (μM), CMV.
In data set [3] the test system is Varicella Zoster Virus (VZV). Put plainly: VZV infectious center assay in MRC-5 cells. The data set is classed as cell-based, human varicella zoster virus (Ellen strain). The conditions noted are these: for EC50: Human alphaherpesvirus 3, MRC5, read-out: ACV Efficacy EC50 (μM), VZV; for EC90: Human alphaherpesvirus 3, MRC5, read-out: ACV Efficacy EC90 (μM), VZV.
Data set [4] relates to HSV-1. Put plainly: HSV-1 PFU production in Vero cell cultures. It is filed as cell-based, HSV-1 (MacIntyre strain).
The subject of data set [5] is HSV-2. Put plainly: Cutaneous HSV-2 model in hairless guinea pigs, combination cream (Example 15). To be noted: 96 hours post-HSV-2-inoculation; cream two times daily; untreated mean 27 vesicles. The data set is classed as in vivo.
The conditions of data set [6]: cited from earlier work.
The test system of data set [7] is vaccinia virus. Put plainly: microbe, parasite or virus in culture. The data set is classed as cell-based, vaccinia virus (WR strain). To be noted: with or without n-docosanol.
The test system of data set [8] is HSV-2. Put plainly: Inhibition of HSV-2 plaque formation in Vero cells. The conditions noted are these: for EC50: Human alphaherpesvirus 2, Vero.
For data set [9] the following is noted: male, hairless, guinea pig, in vivo, 2 day.
The subject of data set [10] is Vero cells. Put plainly: Cytotoxicity to Vero cells (monolayer integrity, trypan blue exclusion).
Data set [11] relates to HSV-2. Put plainly: Topical treatment of HSV-2 in guinea pig model, number of vesicles (Example 9). It is filed as in vivo, hairless guinea pigs. The conditions noted are these: mean; for Number of Vesicles Day 2: 48 hr post-inoculation; for Number of Vesicles Day 3: 72 hr post-inoculation; for Number of Vesicles Day 4: 96 hr post-inoculation.
Data set [12] deals with HSV-2. Put plainly: Transmucosal suppository treatment of HSV-2 infection (Example 13). It is filed as in vivo, human. The conditions noted are these: 8 mM brassidyl alcohol suppositories. The procedure: Suppositories containing 8 mM brassidyl alcohol in a nonionic detergent suspension, prepared essentially as in Examples 1 and 5, are formulated by adding anhydrous dextrose (300-400 mg/suppository), vegetable starch (300-400 mg/suppository) and magnesium stearate (5-10 mg/suppository) to produce a mixture that is compressed into suppositories (1-10 g per suppository) for vaginal insertion.
Fifteen HSV-2 infected women with past histories of vaginal and/or perivaginal herpes lesions are provided with the suppositories and instructed to use one to four suppositories per day when herpes lesions or discomfort associated with herpes lesions are detected. The women are instructed to record their observations about the duration of the active infection, the severity of the lesions (erythema, papule, vesicle, edema or scab phases), the relative numbers of lesions detected to past occurrences of active infection, and the subjective degrees of pain or discomfort associated with the active infection episode. The women are instructed to use the suppositories as soon as active infection or symptoms of active infection are detected. The women have a past mean of 12 days duration for lesions that develop into vesicles if untreated.

The subject of data set [13] is HSV-1. Put plainly: Inhibition of HSV-1 plaque formation in Vero cells (brassidyl alcohol, TETRONIC-908 suspension). To be noted: Human alphaherpesvirus 1, Vero, read-out: Percent Inhibition of Plaque Formation.
The subject of data set [14] is EBV. Put plainly: Systemic treatment of EBV infection, infectious mononucleosis (Example 14). It is filed as in vivo, human. The conditions noted are these: 10 mM n-hexacosanol suspension injected. The procedure: Ten young adults (age 14-19 yr) diagnosed with infectious mononucleosis (sore throat, fever, malaise, generalized lymphadenopathy, atypical mononucleosis T-lymphocytes in peripheral blood, a total white cell count of 12,000-18,000 in the blood) are treated systemically with a sterile aqueous suspension of a nonionic detergent surfactant containing 10 mM n-hexacosanol, prepared essentially as in Example 1. The suspension is injected (intramuscular or intravenous) in dosages of 0.1 mg/kg to 0.02 gm/kg of the aliphatic alcohol administered by a physician under clinical conditions. The symptoms of the individuals are then monitored daily for one week and weekly for three months for indications of infectious mononucleosis. All of the individuals test EBV-positive at the end of the study period as determined by detection of anti-EBV antibodies in their serum using standard immunoassays.

Data set [15] relates to all cell lines tested. Put plainly: Cytotoxicity in mammalian cell cultures. The conditions noted are these: surfactant suspensions. The text has this:
Three assays were used to quantitate the effects of aliphatic alcohols on cell survival and proliferation: 1) counting cells with a hemocytometer and determining the number of cells that exclude trypan blue; 2) measuring the incorporation of ^3H-thymidine into cellular DNA by adding ^3H-thymidine (from New England Nuclear) to the culture medium, lysing the cells with water and harvesting the DNA onto filter paper; and 3) measuring total cellular protein using a sulforhodamine assay adapted for use in 96-well microtiter plates (Skehan et al., J. Natl. Cancer Inst. […] All of these methods are well known cell viability and cytotoxicity assays.

Read-outs that look alike come from different tables or passages of the source.

A word on the EC90: it is the concentration needed for an effect of 90%. The term inhibition denotes how much of the control response was suppressed.

As for `Nc1nc2c(ncn2COCCO)c(=O)[nH]1` [ACV, 9-(2-hydroxy)-ethoxymethyl-guanine], the “cellular toxicity, such as cytoplasmic vacuoles” value in data set [1] is on record as “not observed”. In data set [2] (CMV, n-docosanol concentrations of 10-30 mM), the “reduction of ACV EC50's and EC90's” value is recorded as 90%. Further, the EC50 in [2] (Medium Only) turned out to be 30 µM; in data set [2] (with Pluronic F-68), 30 µM; in data set [2] (with n-Docosanol, 3.3 mM), 8 µM; in [2] (with n-Docosanol, 10 mM), 2 µM; in data set [2] (with n-Docosanol, 30 mM) it was 2 µM; in data set [3] (Medium Only) it was 3 µM. Moreover, the EC50 came out at 3 µM in data set [3] (with Pluronic F-68); 1 µM in [3] (with n-Docosanol, 3.3 mM); 0.6 µM in data set [3] (with n-Docosanol, 10 mM); 0.3 µM in [3] (with n-Docosanol, 30 mM); 0.005 mM in data set [8] (44 h, read-out: ACV 50% effective concentration (EC50), plaque formation, medium alone, 50 PFU HSV-2, scored 44 hours); 0.0002 mM in data set [8] (read-out: ACV EC50, plaque formation). The EC90 in data set [2] (Medium Only) stood at 250 µM; in data set [2] (with Pluronic F-68) it was 250 µM; in [2] (with n-Docosanol, 3.3 mM), 35 µM; in [2] (with n-Docosanol, 10 mM), 25 µM; in [2] (with n-Docosanol, 30 mM) it was 6 µM; in data set [3] (Medium Only), 10 µM. The EC90 in data set [3] (with Pluronic F-68) came out at 10 µM; in data set [3] (with n-Docosanol, 3.3 mM) it was 6 µM; in data set [3] (with n-Docosanol, 10 mM), 4 µM; in [3] (with n-Docosanol, 30 mM), 2 µM; in data set [4] (15 mM n-docosanol, 500 PFU/culture, three days, read-out: EC90 for inhibition of HSV-1 PFU production in the presence of n-docosanol) it was 0.9 µM; in data set [4] (Human alphaherpesvirus 1, Vero, 72 h, control cultures without n-docosanol, 500 PFU/culture, three days, read-out: EC90 for inhibition of HSV-1 PFU production, drug used alone), 19 µM. Besides, the EC90 in data set [4] (Human alphaherpesvirus 1, Vero, read-out: ACV EC90 for inhibition of HSV-1 production, 30 mM n-docosanol) is less than 0.1 µM; in data set [4] (Human alphaherpesvirus 1, Vero, read-out: ACV EC90 for inhibition of HSV-1 production, medium only or medium plus PLURONIC F-68, 500 PFU per culture, 72 hours) it was 10 µM. For the same molecule, in data set [4] (3.3 mM n-docosanol), the “lowering of the ACV EC90” value came to 17 fold. Moreover, the “reduction of the ACV EC90” value in data set [4] (10 mM n-docosanol) is listed as 40 fold. The “reduction of EC90 by n-docosanol” value in data set [4] (15 mM n-docosanol) worked out at 21 fold. Further, in [5], the “reduction of mean vesicle numbers” value amounted to 50%. Besides, the “steady state acyclovir plasma concentration” value in data set [6] (acyclovir 5 mg/kg by 1-hour infusions every 8 hours) is reported as “approximately 10 μg/ml”. Besides, the “maximum average acyclovir plasma concentration” value in [6] (oral acyclovir 500 mg 5 times a day) was “approximately 0.7 μg/ml”. Further, the “sensitivity of vaccinia virus to ACV (in words)” value in data set [7] is “insensitive”. Moreover, in data set [8] (3 mM n-docosanol), the “enhancement of ACV activity” value turned out to be 25 fold.
On to `CCCCCCCCCCCCCCCCCC(=O)O` [stearic acid], for which the “Irritation Score Day 2” value in data set [9] is recorded as 0. In addition, the “cytotoxicity by microscopic examination” value in [10] (11 μM and 22 μM suspensions in TETRONIC 908 and 3.5 μM solution in ethanol) is listed as “No apparent toxicity”; in data set [10] (44 μM TETRONIC 908 suspension and 35 μM ethanol solution), “Moderate toxicity”; in data set [10] (suspensions and solutions of 88 μM to 350 μM), “toxic”. The “Number of Vesicles Day 2” value in data set [11] (10% w/w cream topically 3X/day from 24 hr post-inoculation) and in data set [11] (10% w/w cream topically 5X/day) was 49 throughout. The “Number of Vesicles Day 3” value in [11] (10% w/w cream topically 3X/day) is recorded as 17; in data set [11] (10% w/w cream topically 5X/day), 13. In addition, the “Number of Vesicles Day 4” value in data set [11] (10% w/w cream topically 3X/day) is reported as 11; in data set [11] (10% w/w cream topically 5X/day), 5. Moreover, the “inhibition of HSV-2 plaque formation relative to infected control cell cultures” value in [8] (11 μM and 22 μM in TETRONIC 908, 3.5 μM in ethanol) was “less than 10%”.
Take `CCCCCCCC/C=C/CCCCCCCCCCCCO` [brassidyl alcohol, trans-13-docosen-1-ol]: the “mean duration of the HSV-2 active infection, five women” value in data set [12] fell in the range of 3 to 4 days. Also, in data set [13], the inhibition at 1000 µM amounted to 27%, the inhibition at 2000 µM turned out to be 35%, the inhibition at 4000 µM turned out to be 44% and the inhibition at 8000 µM was found to be 48%.
For `CCCCCCCCCCCCCCCCCCCCCCCCCCO` [n-hexacosanol], the “time to decrease in atypical mononucleosis T-lymphocytes in peripheral blood” value in data set [14] is “four”. Moreover, the “cytotoxicity of the suspensions (in words)” value in [15] is “same minimal level of cytotoxicity”. Further, the EC50 in data set [8] (read-out: 50% Inhibition Concentration (mM)) was 8.4 mM.
